Experimental data reported in ChEMBL document CHEMBL1158420, “Synthesis, spectral, crystal and antimicrobial studies of biologically potent oxime ethers of nitrogen, oxygen and sulfur heterocycles” (2009).
Values after ≈ are worked out from the molar mass of the structure shown.

Experiments:
[1] = test system: Salmonella enterica subsp. enterica; experiment: Antibacterial activity against Salmonella typhi by twofold dilution method; assay type: functional, Salmonella enterica subsp. enterica serovar Typhi
[2] = test system: Aspergillus flavus; experiment: Antifungal activity against Aspergillus flavus by twofold dilution method; assay type: functional
[3] = test system: Cryptococcus neoformans; experiment: Antifungal activity against Cryptococcus neoformans by twofold dilution method; assay type: functional
[4] = test system: Rhizopus; experiment: Antifungal activity against Rhizopus sp. by twofold dilution method; assay type: functional
[5] = test system: Escherichia coli; experiment: Antibacterial activity against Escherichia coli by twofold dilution method; assay type: functional
[6] = test system: Staphylococcus aureus; experiment: Antibacterial activity against Staphylococcus aureus by twofold dilution method; assay type: functional
[7] = test system: Candida; experiment: Antifungal activity against Candida 51 by twofold dilution method; assay type: functional
[8] = test system: Candida albicans; experiment: Antifungal activity against Candida albicans by twofold dilution method; assay type: functional
[9] = test system: Aspergillus niger; experiment: Antifungal activity against Aspergillus niger by twofold dilution method; assay type: functional
[10] = test system: Pseudomonas aeruginosa; experiment: Antibacterial activity against Pseudomonas aeruginosa by twofold dilution method; assay type: functional
[11] = test system: Staphylococcus aureus; experiment: Ratio of MIC for drug to MIC for Ciprofloxacin against Staphylococcus aureus; assay type: functional
[12] = test system: Salmonella enterica subsp. enterica; experiment: Ratio of MIC for drug to MIC for Ciprofloxacin against Salmonella typhi; assay type: functional, Salmonella enterica subsp. enterica serovar Typhi
[13] = Salmonella enterica, read-out: MIC
[14] = Aspergillus flavus, read-out: MIC
[15] = Cryptococcus neoformans, read-out: MIC
[16] = Escherichia coli, read-out: MIC
[17] = Staphylococcus aureus, read-out: MIC
[18] = Candida albicans, read-out: MIC
[19] = Aspergillus niger, read-out: MIC
[20] = Pseudomonas aeruginosa, read-out: MIC

SMILES	MIC [1, 13]	MIC [2, 14]	MIC [3, 15]	MIC ([4]; Rhizopus, read-out: MIC)	MIC [5, 16]	MIC [6, 17]	MIC ([7]; Candida, 51, read-out: MIC)	MIC [8, 18]	MIC [9, 19]	MIC [10, 20]	MIC [8]	also measured
COc1ccc(C2CC(=NOCc3ccccc3)CC(c3ccc(OC)cc3)N2)cc1 (centres undefined)	50 µg/mL (≈ 120 µM)	100 µg/mL (≈ 240 µM)	100 µg/mL (≈ 240 µM)	50 µg/mL (≈ 120 µM)	100 µg/mL (≈ 240 µM)	50 µg/mL (≈ 120 µM)	50 µg/mL (≈ 120 µM)	100 µg/mL (≈ 240 µM)	100 µg/mL (≈ 240 µM)	50 µg/mL (≈ 120 µM)		
CC1/C(=N\OCc2ccccc2)CC(c2ccccc2)OC1c1ccccc1 (centres undefined)	200 µg/mL (≈ 538 µM)	200 µg/mL (≈ 538 µM)	100 µg/mL (≈ 269 µM)	200 µg/mL (≈ 538 µM)	100 µg/mL (≈ 269 µM)	100 µg/mL (≈ 269 µM)	100 µg/mL (≈ 269 µM)	100 µg/mL (≈ 269 µM)	200 µg/mL (≈ 538 µM)	100 µg/mL (≈ 269 µM)		
Cc1ccc(C2CC(=NOCc3ccccc3)CC(c3ccc(C)cc3)N2)cc1 (centres undefined)	100 µg/mL (≈ 260 µM)	100 µg/mL (≈ 260 µM)	200 µg/mL (≈ 520 µM)	100 µg/mL (≈ 260 µM)	200 µg/mL (≈ 520 µM)	200 µg/mL (≈ 520 µM)	100 µg/mL (≈ 260 µM)	200 µg/mL (≈ 520 µM)	200 µg/mL (≈ 520 µM)	50 µg/mL (≈ 130 µM)		
c1ccc(CO/N=C2\C[C@@H](c3ccccc3)S[C@@H](c3ccccc3)C2)cc1 (relative stereo)	100 µg/mL (≈ 268 µM)	> 200 µg/mL	> 200 µg/mL	200 µg/mL (≈ 535 µM)	200 µg/mL (≈ 535 µM)	> 200 µg/mL	200 µg/mL (≈ 535 µM)	> 200 µg/mL	100 µg/mL (≈ 268 µM)	200 µg/mL (≈ 535 µM)		
Cc1ccc([C@@H]2CC(=NOCc3ccccc3)C[C@@H](c3ccc(C)cc3)S2)cc1 (relative stereo)	100 µg/mL (≈ 249 µM)	100 µg/mL (≈ 249 µM)	50 µg/mL (≈ 125 µM)	50 µg/mL (≈ 125 µM)	50 µg/mL (≈ 125 µM)	100 µg/mL (≈ 249 µM)	200 µg/mL (≈ 498 µM)	50 µg/mL (≈ 125 µM)	100 µg/mL (≈ 249 µM)	100 µg/mL (≈ 249 µM)		
c1ccc(CON=C2C[C@@H](c3ccccc3)S[C@H](c3ccccc3)C2)cc1 (relative stereo)	200 µg/mL (≈ 535 µM)	100 µg/mL (≈ 268 µM)	200 µg/mL (≈ 535 µM)	> 200 µg/mL	200 µg/mL (≈ 535 µM)	> 200 µg/mL	> 200 µg/mL	200 µg/mL (≈ 535 µM)	200 µg/mL (≈ 535 µM)	> 200 µg/mL		
CC1C(=NOCc2ccccc2)C(C)C(c2ccccc2)NC1c1ccccc1 (stereo in doubt; 5f1)	100 µg/mL (≈ 260 µM)	200 µg/mL (≈ 520 µM)	100 µg/mL (≈ 260 µM)	100 µg/mL (≈ 260 µM)	50 µg/mL (≈ 130 µM)	200 µg/mL (≈ 520 µM)	50 µg/mL (≈ 130 µM)	50 µg/mL (≈ 130 µM)	100 µg/mL (≈ 260 µM)			MIC [10]: 50 µg/mL (≈ 130 µM)
CC1C(=NOCc2ccccc2)C(C)C(c2ccccc2)NC1c1ccccc1 (stereo in doubt; 5f2)											100 µg/mL (≈ 260 µM)	MIC [1]: 100 µg/mL (≈ 260 µM); MIC [2]: >200 µg/mL; MIC [3]: 200 µg/mL (≈ 520 µM); MIC [4]: 50 µg/mL (≈ 130 µM); MIC [5]: 100 µg/mL (≈ 260 µM); MIC [6]: 100 µg/mL (≈ 260 µM); MIC [7]: 100 µg/mL (≈ 260 µM); MIC [9]: 100 µg/mL (≈ 260 µM); MIC [10]: 200 µg/mL (≈ 520 µM)
CC1C(=NOCc2ccccc2)C(C)C(c2ccc(Cl)cc2)OC1c1ccc(Cl)cc1 (stereo in doubt; 7c1)	50 µg/mL (≈ 110 µM)	50 µg/mL (≈ 110 µM)	25 µg/mL (≈ 55 µM)	50 µg/mL (≈ 110 µM)	50 µg/mL (≈ 110 µM)	50 µg/mL (≈ 110 µM)	50 µg/mL (≈ 110 µM)		100 µg/mL (≈ 220 µM)	25 µg/mL (≈ 55 µM)	50 µg/mL (≈ 110 µM)	
CC1C(=NOCc2ccccc2)C(C)C(c2ccc(Cl)cc2)OC1c1ccc(Cl)cc1 (stereo in doubt; 7c2)											12.5 µg/mL (≈ 27.5 µM)	MIC [1]: 100 µg/mL (≈ 220 µM); MIC [2]: 25 µg/mL (≈ 55 µM); MIC [3]: 12.5 µg/mL (≈ 27.5 µM); MIC [4]: 25 µg/mL (≈ 55 µM); MIC [5]: 50 µg/mL (≈ 110 µM); MIC [6]: 50 µg/mL (≈ 110 µM); MIC [7]: 25 µg/mL (≈ 55 µM); MIC [9]: 50 µg/mL (≈ 110 µM); MIC [10]: 50 µg/mL (≈ 110 µM)
Cc1ccc(C2OC(c3ccc(C)cc3)C(C)C(=NOCc3ccccc3)C2C)cc1 (stereo in doubt; 7d1)	25 µg/mL (≈ 60.5 µM)	50 µg/mL (≈ 121 µM)	50 µg/mL (≈ 121 µM)	50 µg/mL (≈ 121 µM)	25 µg/mL (≈ 60.5 µM)	12.5 µg/mL (≈ 30.2 µM)			50 µg/mL (≈ 121 µM)	12.5 µg/mL (≈ 30.2 µM)	25 µg/mL (≈ 60.5 µM)	Ratio [11]: 2; Ratio [12]: 2; MIC [7]: 50 µg/mL (≈ 121 µM)
Cc1ccc(C2OC(c3ccc(C)cc3)C(C)C(=NOCc3ccccc3)C2C)cc1 (stereo in doubt; 7d2)											6.25 µg/mL (≈ 15.1 µM)	MIC [2]: 25 µg/mL (≈ 60.5 µM); MIC [3]: 25 µg/mL (≈ 60.5 µM); MIC [4]: 25 µg/mL (≈ 60.5 µM); MIC [5]: 50 µg/mL (≈ 121 µM); MIC [6]: 25 µg/mL (≈ 60.5 µM); MIC [7]: 6.25 µg/mL (≈ 15.1 µM); MIC [9]: 50 µg/mL (≈ 121 µM); MIC [10]: 25 µg/mL (≈ 60.5 µM)
C[C@@H]1[C@H](O)[C@@H](C)/C=C/C=C/C=C/C=C/C=C/C=C/C=C/[C@H](O[C@@H]2O[C@H](C)[C@@H](O)[C@H](N)[C@@H]2O)C[C@@H]2O[C@](O)(C[C@@H](O)C[C@@H](O)[C@H](O)CC[C@@H](O)C[C@@H](O)CC(=O)O[C@H]1C)C[C@H](O)[C@H]2C(=O)O [AMPHOTERICIN B]		50 µg/mL (≈ 54.1 µM)	25 µg/mL (≈ 27.1 µM)	25 µg/mL (≈ 27.1 µM)			25 µg/mL (≈ 27.1 µM)	25 µg/mL (≈ 27.1 µM)	50 µg/mL (≈ 54.1 µM)			
O=C(O)c1cn(C2CC2)c2cc(N3CCNCC3)c(F)cc2c1=O [CIPROFLOXACIN]	50 µg/mL (≈ 151 µM)				25 µg/mL (≈ 75.4 µM)							
